Measured values from patent publication US6355799B1, “Substituted benzene compounds, process for their preparation, and herbicidal and defoliant compositions containing them” (ISK Americas Incorporated, priority 1997, dated 2002).

Tests used:
Type in all cases: in vivo
[1] = test system: sicklepod (Cassia obtusifolia, CASOB); assay: Post-emerge test, greenhouse herbicide activity screening; conditions: post-emerge, 14 days after application, rating scale 0-100
Procedure, shortened: (§1)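 Herbicidal damage is scored 0 (none) to 100 (complete plant death) two weeks after a simulated field spray. Rates span 15–1000 g ai/ha, delivered in acetone at 187 l/ha. For post-emergence treatments, plants have 2–3 leaves and the spray carries 0.25% v/v non-ionic surfactant.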

[2] = test system: johnsongrass (Sorghum halepense, SORHA); assay: as above; conditions: post-emerge, 14 days after application, rating scale 0-100
Procedure, shortened: as §1

[3] = test system: redroot pigweed (Amaranthus retroflexus, AMARE); assay: as above; conditions: post-emerge, 14 days after application, rating scale 0-100
Procedure, shortened: as §1

[4] = test system: ivyleaf morningglory (Ipomoea hederacea, IPOHE); assay: as above; conditions: post-emerge, 14 days after application, rating scale 0-100
Procedure, shortened: as §1

[5] = test system: barnyardgrass (Echinochloa crus-galli, ECHCG); assay: as above; conditions: post-emerge, 14 days after application, rating scale 0-100
Procedure, shortened: as §1

[6] = test system: lambsquarters (Chenopodium album, CHEAL); assay: as above; conditions: post-emerge, 14 days after application, rating scale 0-100
Procedure, shortened: as §1

[7] = test system: velvetleaf (Abutilon theophrasti, ABUTH); assay: as above; conditions: post-emerge, 14 days after application, rating scale 0-100
Procedure, shortened: as §1

[8] = test system: large crabgrass (Digitaria sanguinalis, DIGSA); assay: as above; conditions: post-emerge, 14 days after application, rating scale 0-100
Procedure, shortened: as §1

[9] = test system: green foxtail (Setaria viridis, SETVI); assay: as above; conditions: post-emerge, 14 days after application, rating scale 0-100
Procedure, shortened: as §1

[10] = test system: field corn (Zea mays L., var. Dekalb 535, CORN); assay: Post-emerge test, crop safety; conditions: post-emerge, 14 days after application, rating scale 0-100
Procedure, shortened: as §1

[11] = test system: upland rice (Oryza sp., var. Tebonnet, RICE); assay: Post-emerge test, crop safety; conditions: post-emerge, 14 days after application, rating scale 0-100
Procedure, shortened: as §1

[12] = test system: field corn (Zea mays L., var. Dekalb 535, CORN); assay: Pre-emerge test, crop safety; conditions: rated 14 days after application, 0 = no damage, 100 = complete death
Procedure, shortened: (§2)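 Sandy loam pots; pre-emerge: sown 1 d pre-spray, surface-watered after, then bottom-watered. Post-emerge: sown 8–21 d before, 2–3 leaf stage, + 0.25% v/v NIS, bottom-watered. Acetone, 187 l/ha track spray, 15–1000 g ai/ha. 0–100 injury score, day 14.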

[13] = test system: upland rice (Oryza sp., var. Tebonnet, RICE); assay: Pre-emerge test, crop safety; conditions: rated 14 days after application, 0 = no damage, 100 = complete death
Procedure, shortened: as §2

[14] = test system: redroot pigweed (Amaranthus retroflexus, AMARE); assay: Pre-emerge test, greenhouse herbicide activity screening; conditions: rated 14 days after application, 0 = no damage, 100 = complete death
Procedure, shortened: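 Compounds in acetone were track-sprayed at 15-1000 g ai/ha (187 l/ha) on sandy loam pots: pre-emerge one day after seeding, post-emerge at 2-3 leaf stage with 0.25% v/v non-ionic surfactant. Phytotoxicity was rated 14 days later on a 0 (no damage) to 100 (complete death) scale.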

[15] = test system: sicklepod (Cassia obtusifolia, CASOB); assay: as above; conditions: rated 14 days after application, 0 = no damage, 100 = complete death
Procedure, shortened: as §1

[16] = test system: johnsongrass (Sorghum halepense, SORHA); assay: as above; conditions: rated 14 days after application, 0 = no damage, 100 = complete death
Procedure, shortened: as §1

[17] = test system: ivyleaf morningglory (Ipomoea hederacea, IPOHE); assay: as above; conditions: rated 14 days after application, 0 = no damage, 100 = complete death
Procedure, shortened: as §1

[18] = test system: barnyardgrass (Echinochloa crus-galli, ECHCG); assay: as above; conditions: rated 14 days after application, 0 = no damage, 100 = complete death
Procedure, shortened: as §1

[19] = test system: lambsquarters (Chenopodium album, CHEAL); assay: as above; conditions: rated 14 days after application, 0 = no damage, 100 = complete death
Procedure, shortened: as §1

[20] = test system: velvetleaf (Abutilon theophrasti, ABUTH); assay: as above; conditions: rated 14 days after application, 0 = no damage, 100 = complete death
Procedure, shortened: as §1

[21] = test system: large crabgrass (Digitaria sanguinalis, DIGSA); assay: as above; conditions: rated 14 days after application, 0 = no damage, 100 = complete death
Procedure, shortened: as §1

[22] = test system: green foxtail (Setaria viridis, SETVI); assay: as above; conditions: rated 14 days after application, 0 = no damage, 100 = complete death
Procedure, shortened: as §1

COc1c(Cl)cc(F)c(-n2c(=O)cc(C(F)(F)F)n(N)c2=O)c1NC(=O)c1ccc2ccccc2c1 [2-77]
95: phytotoxicity rating IPOHE ([4]; 250 g ai/ha)
40: phytotoxicity rating CASOB ([1]; 63 g ai/ha) | phytotoxicity rating RICE ([11]; 250 g ai/ha)
80: phytotoxicity rating CHEAL ([6]; 250 g ai/ha)
30: Pre-emerge Herbicidal Activity, phytotoxicity rating (0-100), CASOB ([15]; 250 g ai/ha) | Pre-emerge Herbicidal Activity, phytotoxicity rating (0-100), IPOHE ([17]; 250 g ai/ha) | Pre-emerge Herbicidal Activity, phytotoxicity rating (0-100), ABUTH ([20]; 63 g ai/ha) | Pre-emerge Herbicidal Activity, phytotoxicity rating (0-100), DIGSA ([21]; 250 g ai/ha)
0: phytotoxicity rating SORHA ([2]; 63 g ai/ha) | phytotoxicity rating SORHA ([2]; 250 g ai/ha) | phytotoxicity rating ECHCG ([5]; 63 g ai/ha) | phytotoxicity rating ECHCG ([5]; 250 g ai/ha) | phytotoxicity rating DIGSA ([8]; 63 g ai/ha) | phytotoxicity rating DIGSA ([8]; 250 g ai/ha) | phytotoxicity rating SETVI ([9]; 63 g ai/ha) | phytotoxicity rating SETVI ([9]; 250 g ai/ha) | phytotoxicity rating CORN ([10]; 63 g ai/ha) | Pre-emerge phytotoxicity rating (0-100), crop damage, CORN ([12]; 63 g ai/ha) | Pre-emerge phytotoxicity rating (0-100), crop damage, CORN ([12]; 250 g ai/ha) | Pre-emerge phytotoxicity rating (0-100), crop damage, RICE ([13]; 63 g ai/ha) | Pre-emerge Herbicidal Activity, phytotoxicity rating (0-100), CASOB ([15]; 63 g ai/ha) | Pre-emerge Herbicidal Activity, phytotoxicity rating (0-100), SORHA ([16]; 63 g ai/ha) | Pre-emerge Herbicidal Activity, phytotoxicity rating (0-100), SORHA ([16]; 250 g ai/ha) | Pre-emerge Herbicidal Activity, phytotoxicity rating (0-100), IPOHE ([17]; 63 g ai/ha) | Pre-emerge Herbicidal Activity, phytotoxicity rating (0-100), ECHCG ([18]; 63 g ai/ha) | Pre-emerge Herbicidal Activity, phytotoxicity rating (0-100), ECHCG ([18]; 250 g ai/ha) | Pre-emerge Herbicidal Activity, phytotoxicity rating (0-100), DIGSA ([21]; 63 g ai/ha) | Pre-emerge Herbicidal Activity, phytotoxicity rating (0-100), SETVI ([22]; 63 g ai/ha)
60: phytotoxicity rating IPOHE ([4]; 63 g ai/ha) | Pre-emerge Herbicidal Activity, phytotoxicity rating (0-100), SETVI ([22]; 250 g ai/ha)
10: phytotoxicity rating AMARE ([3]; 63 g ai/ha) | phytotoxicity rating CORN ([10]; 250 g ai/ha)
100: phytotoxicity rating CASOB ([1]; 250 g ai/ha) | phytotoxicity rating AMARE ([3]; 250 g ai/ha) | phytotoxicity rating CHEAL ([6]; 63 g ai/ha) | phytotoxicity rating ABUTH ([7]; 63 g ai/ha) | phytotoxicity rating ABUTH ([7]; 250 g ai/ha) | Pre-emerge Herbicidal Activity, phytotoxicity rating (0-100), AMARE ([14]; 250 g ai/ha) | Pre-emerge Herbicidal Activity, phytotoxicity rating (0-100), CHEAL ([19]; 250 g ai/ha) | Pre-emerge Herbicidal Activity, phytotoxicity rating (0-100), ABUTH ([20]; 250 g ai/ha)
90: Pre-emerge Herbicidal Activity, phytotoxicity rating (0-100), CHEAL ([19]; 63 g ai/ha)
20: phytotoxicity rating RICE ([11]; 63 g ai/ha) | Pre-emerge phytotoxicity rating (0-100), crop damage, RICE ([13]; 250 g ai/ha)
70: Pre-emerge Herbicidal Activity, phytotoxicity rating (0-100), AMARE ([14]; 63 g ai/ha)
